Test results as given in ChEMBL document CHEMBL2331167, “Inhibitory effect of novel somatostatin peptide analogues on human cancer cell growth based on the selective inhibition of DNA polymerase β” (Bioorg Med Chem, 2013).
The source made the active and inactive calls. The rule behind the calls is not given here.

How the values were obtained:
HCT-116 [1] = assay: Induction of apoptosis in p53 -/- human HCT116 cells assessed as apoptotic cells at 13.7 uM incubated for 24 hrs by TUNEL analysis; type: functional, cell-based
HCT-116 [2] = assay: Induction of apoptosis in p53 +/+ human HCT116 cells assessed as apoptotic cells at 13.2 uM incubated for 24 hrs by TUNEL analysis; type: functional
HCT-116 [3] = assay: Cytotoxicity against p53 -/- human HCT116 cells assessed as growth inhibition incubated for 24 hrs by WST-1 assay; type: functional; details: HCT-116, 24 h, read-out: LD50 (the source's name)
[4] = Cytotoxicity against human dermal fibroblasts; details: hdf
HCT-116 [5] = assay: Cytotoxicity against p53 -/- human HCT116 cells assessed as growth inhibition at 200 uM incubated for 24 hrs by WST-1 assay; type: functional, cell-based
HCT-116 [6] = assay: Cytotoxicity against p53 +/+ human HCT116 cells assessed as growth inhibition at 200 uM incubated for 24 hrs by WST-1 assay; type: functional, cell-based
DNA polymerase kappa = target: T1, DNA polymerase kappa (Homo sapiens, UniProt Q9UBT6); assay: Inhibition of human DNA polymerase kappa using poly(dA)/oligo(dT)18 (A/T, 2/1)/dTTP DNA template-primer substrate measured at 37 degC for 60 mins
T1 sequence (Q9UBT6 whole entry): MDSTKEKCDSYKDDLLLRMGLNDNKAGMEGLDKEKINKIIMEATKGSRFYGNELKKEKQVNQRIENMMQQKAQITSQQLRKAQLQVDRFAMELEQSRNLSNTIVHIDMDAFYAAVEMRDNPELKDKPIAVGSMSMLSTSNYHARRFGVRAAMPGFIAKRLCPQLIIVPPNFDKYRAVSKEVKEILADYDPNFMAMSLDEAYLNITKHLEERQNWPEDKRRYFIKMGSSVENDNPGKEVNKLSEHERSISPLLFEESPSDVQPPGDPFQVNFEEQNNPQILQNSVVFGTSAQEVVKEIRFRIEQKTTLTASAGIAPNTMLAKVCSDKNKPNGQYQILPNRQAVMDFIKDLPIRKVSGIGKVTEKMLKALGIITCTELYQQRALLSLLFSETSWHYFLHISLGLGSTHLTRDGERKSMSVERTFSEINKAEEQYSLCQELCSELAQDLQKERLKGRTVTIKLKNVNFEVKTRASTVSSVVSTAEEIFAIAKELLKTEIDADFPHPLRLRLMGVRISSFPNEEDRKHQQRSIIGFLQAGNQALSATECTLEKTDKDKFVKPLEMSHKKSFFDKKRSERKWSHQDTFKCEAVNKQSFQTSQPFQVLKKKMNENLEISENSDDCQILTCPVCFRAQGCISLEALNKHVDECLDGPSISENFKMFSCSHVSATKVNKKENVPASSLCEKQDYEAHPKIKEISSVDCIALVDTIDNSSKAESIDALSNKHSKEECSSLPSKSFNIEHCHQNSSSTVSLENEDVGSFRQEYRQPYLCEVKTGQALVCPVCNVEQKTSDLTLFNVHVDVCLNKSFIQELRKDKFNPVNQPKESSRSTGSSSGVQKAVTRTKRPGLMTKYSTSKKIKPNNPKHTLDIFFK

DNA polymerase iota = target: T2, DNA polymerase iota (Homo sapiens, UniProt Q9UNA4); assay: Inhibition of human DNA polymerase iota using poly(dA)/oligo(dT)18 (A/T, 2/1)/dTTP DNA template-primer substrate measured at 37 degC for 60 mins
T2 sequence (Q9UNA4 whole entry): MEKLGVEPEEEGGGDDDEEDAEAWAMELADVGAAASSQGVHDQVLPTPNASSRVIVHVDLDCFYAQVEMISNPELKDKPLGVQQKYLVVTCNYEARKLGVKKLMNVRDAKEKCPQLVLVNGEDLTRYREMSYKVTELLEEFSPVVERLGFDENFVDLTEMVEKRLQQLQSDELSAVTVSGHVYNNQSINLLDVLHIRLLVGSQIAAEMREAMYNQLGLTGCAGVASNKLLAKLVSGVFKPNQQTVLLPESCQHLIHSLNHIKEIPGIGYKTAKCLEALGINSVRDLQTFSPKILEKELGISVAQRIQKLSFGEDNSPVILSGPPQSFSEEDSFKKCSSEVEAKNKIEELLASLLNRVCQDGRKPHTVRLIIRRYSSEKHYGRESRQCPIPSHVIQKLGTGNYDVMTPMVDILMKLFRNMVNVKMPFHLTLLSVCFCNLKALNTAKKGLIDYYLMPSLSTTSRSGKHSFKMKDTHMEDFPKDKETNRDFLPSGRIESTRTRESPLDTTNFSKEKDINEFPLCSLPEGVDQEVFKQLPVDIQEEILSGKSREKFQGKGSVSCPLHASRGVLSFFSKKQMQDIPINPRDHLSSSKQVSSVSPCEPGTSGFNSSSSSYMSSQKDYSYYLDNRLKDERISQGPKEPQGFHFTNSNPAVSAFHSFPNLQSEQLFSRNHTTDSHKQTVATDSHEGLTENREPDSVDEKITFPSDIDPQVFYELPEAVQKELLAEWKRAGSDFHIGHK

[7] = target: DNA nucleotidylexotransferase (Bos taurus, UniProt P06526); assay: Inhibition of calf TdT polymerase measured at 37 degC for 60 mins
[8] = target: DNA-directed DNA/RNA polymerase mu (Homo sapiens, UniProt Q9NP87); assay: Inhibition of human DNA polymerase mu using poly(dA)/oligo(dT)18 (A/T, 2/1)/dTTP DNA template-primer substrate measured at 37 degC for 60 mins
DNA polymerase lambda = target: T3, DNA polymerase lambda (Homo sapiens, UniProt Q9UGP5); assay: Inhibition of human DNA polymerase lambda using poly(dA)/oligo(dT)18 (A/T, 2/1)/dTTP DNA template-primer substrate measured at 37 degC for 60 mins
T3 sequence (Q9UGP5 whole entry): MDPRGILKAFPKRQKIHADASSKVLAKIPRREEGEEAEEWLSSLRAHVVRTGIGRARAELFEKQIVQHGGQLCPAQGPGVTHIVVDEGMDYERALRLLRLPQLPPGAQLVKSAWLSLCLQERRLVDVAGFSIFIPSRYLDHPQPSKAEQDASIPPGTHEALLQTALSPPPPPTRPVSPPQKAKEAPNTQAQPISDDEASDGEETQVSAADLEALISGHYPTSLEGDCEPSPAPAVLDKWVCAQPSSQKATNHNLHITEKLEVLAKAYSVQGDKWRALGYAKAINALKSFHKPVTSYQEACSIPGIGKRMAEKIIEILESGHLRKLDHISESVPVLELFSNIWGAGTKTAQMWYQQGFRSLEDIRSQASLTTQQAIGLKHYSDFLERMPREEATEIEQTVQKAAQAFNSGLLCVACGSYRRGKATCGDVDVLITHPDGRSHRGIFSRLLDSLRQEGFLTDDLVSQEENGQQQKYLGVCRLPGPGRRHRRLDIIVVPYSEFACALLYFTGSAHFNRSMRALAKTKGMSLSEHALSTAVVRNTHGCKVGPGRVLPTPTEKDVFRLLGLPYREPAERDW

DNA polymerase beta = DNA polymerase beta (Rattus norvegicus, UniProt P06766); assay: Inhibition of rat DNA polymerase beta using poly(dA)/oligo(dT)18 (A/T, 2/1)/dTTP DNA template-primer substrate measured at 37 degC for 60 mins

Sequence of DNA nucleotidylexotransferase (P06526 whole entry): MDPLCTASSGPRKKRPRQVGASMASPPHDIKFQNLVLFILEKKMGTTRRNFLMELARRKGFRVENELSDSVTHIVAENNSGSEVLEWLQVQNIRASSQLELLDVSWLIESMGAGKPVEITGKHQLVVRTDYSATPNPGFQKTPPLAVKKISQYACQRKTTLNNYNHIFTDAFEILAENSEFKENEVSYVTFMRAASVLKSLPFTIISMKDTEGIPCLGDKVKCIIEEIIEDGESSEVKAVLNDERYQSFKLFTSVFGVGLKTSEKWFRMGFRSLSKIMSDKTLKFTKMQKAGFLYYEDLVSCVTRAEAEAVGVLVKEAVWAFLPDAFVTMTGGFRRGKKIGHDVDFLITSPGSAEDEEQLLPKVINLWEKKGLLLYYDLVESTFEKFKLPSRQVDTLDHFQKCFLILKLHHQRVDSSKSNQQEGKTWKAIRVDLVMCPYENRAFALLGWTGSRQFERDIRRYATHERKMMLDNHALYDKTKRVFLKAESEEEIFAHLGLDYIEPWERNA
Sequence of DNA-directed DNA/RNA polymerase mu (Q9NP87 whole entry): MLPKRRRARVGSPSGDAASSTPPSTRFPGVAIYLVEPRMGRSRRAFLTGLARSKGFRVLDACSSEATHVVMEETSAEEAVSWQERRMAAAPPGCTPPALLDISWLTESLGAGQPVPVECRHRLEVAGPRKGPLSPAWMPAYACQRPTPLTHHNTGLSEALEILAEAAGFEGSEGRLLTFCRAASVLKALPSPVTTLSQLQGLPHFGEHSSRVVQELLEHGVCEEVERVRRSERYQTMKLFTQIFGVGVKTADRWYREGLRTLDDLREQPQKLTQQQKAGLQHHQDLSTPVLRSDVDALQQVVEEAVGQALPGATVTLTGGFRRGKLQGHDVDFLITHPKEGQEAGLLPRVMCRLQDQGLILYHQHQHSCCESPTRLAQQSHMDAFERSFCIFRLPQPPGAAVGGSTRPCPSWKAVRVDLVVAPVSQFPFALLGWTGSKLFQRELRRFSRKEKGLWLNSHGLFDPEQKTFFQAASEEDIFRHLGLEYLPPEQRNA

Q: Which Activity (HCT-116 [1]) does the source give for `CC[C@H](C)[C@H](NC(=O)[C@H](Cc1ccc(O)cc1)NC(=O)OC(C)(C)C)C(=O)Nc1cccc2ccccc12` here?
A: Active

Q: And the “fold change (FC)” value (HCT-116 [2])?
A: 5

Q: And the CC50 (HCT-116 [3])?
A: 13.7 µM

Q: What about the Activity [4] of the same compound?
A: Non-toxic

Q: And the “growth inhibition (GI)” value (HCT-116 [5])?
A: Active

Q: What about the “growth inhibition (GI)” value (HCT-116 [6]) of the same compound?
A: Active

Q: And the IC50 (DNA polymerase kappa)?
A: > 200 µM

Q: And the IC50 (DNA polymerase iota)?
A: > 200 µM

Q: What about the IC50 [7] of the same compound?
A: > 200 µM

Q: What about the IC50 [8] of the same compound?
A: > 200 µM

Q: What about the IC50 (DNA polymerase lambda) of the same compound?
A: > 200 µM

Q: What about the IC50 (DNA polymerase beta) of the same compound?
A: 11.5 µM
